Results on four molecules are retold here after ChEMBL document CHEMBL5131452, “Cell-based screening of extracts of natural sources to search for inhibitors of the ubiquitin-proteasome system and identification of proteasome inhibitors from the fungus Remotididymella sp” (Bioorg Med Chem Lett, 2022).

Active and inactive are the calls of the source. The rule behind the calls is not given here.

The IC50 is the concentration at which inhibition is half-maximal. Higher therefore signals lower potency.

Data set [1] deals with T1, Proteasome subunit beta type-10 (Homo sapiens, UniProt P40306).
T1 sequence (P40306 whole entry): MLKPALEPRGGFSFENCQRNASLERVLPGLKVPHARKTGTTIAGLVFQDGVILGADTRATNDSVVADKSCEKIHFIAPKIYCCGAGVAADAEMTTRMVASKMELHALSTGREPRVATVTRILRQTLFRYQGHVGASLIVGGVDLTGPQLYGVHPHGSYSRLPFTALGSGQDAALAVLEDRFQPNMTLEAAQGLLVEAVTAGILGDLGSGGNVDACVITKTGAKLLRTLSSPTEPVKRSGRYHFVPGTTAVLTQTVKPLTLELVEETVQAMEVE
The data set can be described thus: Inhibition of human proteasome subunit beta type-2i using fluorogenic substrate by UV-spectrometry.

In data set [2] the target is T2, Proteasome subunit beta type-8 (Homo sapiens, UniProt P28062).
T2 sequence (P28062 whole entry): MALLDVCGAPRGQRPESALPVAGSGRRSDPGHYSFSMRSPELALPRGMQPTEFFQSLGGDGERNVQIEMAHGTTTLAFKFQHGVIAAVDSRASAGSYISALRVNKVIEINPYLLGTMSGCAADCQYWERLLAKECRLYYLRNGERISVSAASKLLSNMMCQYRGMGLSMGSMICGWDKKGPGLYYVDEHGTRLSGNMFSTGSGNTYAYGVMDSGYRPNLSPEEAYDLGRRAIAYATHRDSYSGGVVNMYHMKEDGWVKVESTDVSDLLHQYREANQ
The data set can be described thus: Inhibition of human proteasome subunit beta type-5i using fluorogenic substrate by UV-spectrometry.

Data set [3] deals with T3, Proteasome Macropain subunit MB1 (Homo sapiens, UniProt P28074).
T3 sequence (P28074 whole entry): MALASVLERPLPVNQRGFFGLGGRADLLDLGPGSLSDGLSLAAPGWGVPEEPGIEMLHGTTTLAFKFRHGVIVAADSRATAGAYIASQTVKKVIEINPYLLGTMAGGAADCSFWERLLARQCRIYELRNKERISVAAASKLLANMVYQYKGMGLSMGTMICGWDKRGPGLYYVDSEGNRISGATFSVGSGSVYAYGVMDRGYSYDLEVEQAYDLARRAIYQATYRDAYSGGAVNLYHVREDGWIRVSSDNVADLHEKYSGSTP
Nature of the data set: Inhibition of human constitutive proteasome subunit beta type-5 in human erythrocytes using fluorogenic substrate by UV-spectrometry. The data set is classed as cell-based, Erythrocyte.

In data set [4] the target is T4, Proteasome subunit beta type-9 (Homo sapiens, UniProt P28065).
T4 sequence (P28065 whole entry): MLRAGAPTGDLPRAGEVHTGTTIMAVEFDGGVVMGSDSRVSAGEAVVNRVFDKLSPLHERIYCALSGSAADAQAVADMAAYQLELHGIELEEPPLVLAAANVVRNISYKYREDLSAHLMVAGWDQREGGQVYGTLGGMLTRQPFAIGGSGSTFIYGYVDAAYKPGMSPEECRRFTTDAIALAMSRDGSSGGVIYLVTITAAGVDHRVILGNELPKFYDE
The data set can be described thus: Inhibition of human proteasome subunit beta type-1i in using fluorogenic substrate by UV-spectrometry.

For data set [5], the system named is HeLa. Nature of the data set: Inhibition of UPS-mediated proteolysis in human HeLa cells expressing ODD-luciferase assessed as increase in luminescence at 2 to 16 uM using D-luciferin as substrate incubated for 4 hrs by luciferase reporter gene assay. The note with it: dose 2-16 µM. The data set is classed as cell-based. On the technique in general: A reporter such as luciferase makes a cellular process visible.

Data set [6] concerns HeLa. Nature of the data set: Cytotoxicity against human HeLa cells expressing ODD-luciferase at 16 uM by MTT assay. Type of data set: toxicity, cell-based. In general terms: Formazan colour is commonly taken as a measure of viable cells.
Data set [7] deals with HeLa. The data set can be described thus: Inhibition of UPS-mediated proteolysis in human HeLa cells assessed as increase in ubiquitinated proteins at 2 to 24 uM incubated for 24 hrs by western blot analysis. The data set is classed as cell-based. The note with it: dose 2-24 µM. For orientation: In western blotting, separated proteins are transferred to a membrane and probed.

For data set [8], the system named is HeLa. Nature of the data set: Inhibition of UPS-mediated proteolysis in human HeLa cells expressing ODD-luciferase assessed as fold change in increase in luminescence at 2 uM using D-luciferin as substrate incubated for 4 hrs by luciferase reporter gene assay. The data set is classed as cell-based.

On to `CCC(C)/C=C(\C)c1cc2c(cn1)C(=O)c1c(cc(OC)c(O)c1O)C2=O` (centres undefined), for which the IC50 in data set [1] is 43 µM; in data set [2], 40 µM; in data set [3], 16 µM; in data set [4] it was over 50 µM.
As for `CCC(C)/C=C(\C)C1=Cc2cc3c(c(O)c2CO1)C(=O)C(O)(CC(C)=O)C(OC)=C3` (centres undefined), the inhibition entry in the data set with HeLa [5] was “Active”. The IC50 in data set [1] was 30 µM; in data set [2], 50 µM; in data set [3], 46 µM; in data set [4], over 50 µM.
On to `CCC(C)/C=C(\C)c1cc2c(cn1)C(=O)C1=C(N)C(=O)C(OC)=CC1=C2` (centres undefined), for which the inhibition entry in the data set on HeLa [5] is “Active”. In addition, the IC50 in data set [1] is 33 µM; in data set [2] it was 20 µM; in data set [3], 22 µM; in data set [4] it was over 50 µM. Moreover, the Activity entry in the data set with HeLa [6] was “Toxic”.
Take `CCC(C)/C=C(\C)C1=Cc2cc3c(c(O)c2CO1)C(=O)C(=O)C(OC)=C3` (centres undefined): the inhibition result with HeLa [5] and in the data set with HeLa [7] was “Active” in each case. In addition, the Activity result with HeLa [6] is reported as “Toxic”. Also, the fold change (FC) with HeLa [8] turned out to be 2.5.
